Laboratory results: ChEMBL document CHEMBL1201861, “Genomics of Drug Sensitity in Cancer screening data, Wellcome Trust Sanger Institute”
Values belong to the compound of their own block, whether it stands above or below them.

Columns and labels:
Experiment in all cases: cells
OCI-AML2 = format: functional, cell-based, Homo sapiens; settings: Homo sapiens, OCI-AML2;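 note: growth inhibition of OCI-AML2 cells, read out with a cell viability assay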
Description: SANGER: Inhibition of human OCI-AML2 cell growth in a cell viability assay.

SK-UT-1 = format: functional, cell-based, Homo sapiens; settings: Homo sapiens, SK-UT-1;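 note: growth inhibition of SK-UT-1 cells, measured by a cell viability assay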
Description: SANGER: Inhibition of human SK-UT-1 cell growth in a cell viability assay.

DOHH-2 = format: functional, cell-based, Homo sapiens; settings: Homo sapiens, DOHH-2;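 note: growth inhibition of human DOHH-2 cells, read out with a cell viability assay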
Description: SANGER: Inhibition of human DOHH-2 cell growth in a cell viability assay.

BB30-HNC = format: functional, cell-based, Homo sapiens; settings: Homo sapiens, BB30-HNC;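 note: growth inhibition of the cultured cell line, read out by a cell viability assay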
Description: SANGER: Inhibition of human BB30-HNC cell growth in a cell viability assay.

TE-8 = format: functional, cell-based, Homo sapiens; settings: Homo sapiens, TE-8;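 note: growth inhibition of TE-8 cells, measured with a cell viability readout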
Description: SANGER: Inhibition of human TE-8 cell growth in a cell viability assay.

no-11 = format: functional, cell-based, Homo sapiens; settings: Homo sapiens;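 note: growth inhibition of human NO-11 cells, read out with a cell viability assay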
Description: SANGER: Inhibition of human no-11 cell growth in a cell viability assay.

SW872 = format: functional, cell-based, Homo sapiens; settings: Homo sapiens, SW872;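 note: growth inhibition of SW872 cells, read out by a viability assay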
Description: SANGER: Inhibition of human SW872 cell growth in a cell viability assay.

EW-18 = format: functional, cell-based, Homo sapiens; settings: Homo sapiens, EW-18; read-out: IC50;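 note: growth inhibition of EW-18 cells, read out by a cell viability assay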
Description: SANGER: Inhibition of human EW-18 cell growth in a cell viability assay.

NCI-H1770 = format: functional, cell-based, Homo sapiens; settings: Homo sapiens, NCI-H1770;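 note: growth inhibition of NCI-H1770 cells determined with a viability readout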
Description: SANGER: Inhibition of human NCI-H1770 cell growth in a cell viability assay.

KINGS-1 = format: functional, cell-based, Homo sapiens; settings: Homo sapiens, KINGS-1;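 note: cell viability assay measuring suppression of KINGS-1 cell growth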
Description: SANGER: Inhibition of human KINGS-1 cell growth in a cell viability assay.

NB5 = format: functional, cell-based, Homo sapiens; settings: Homo sapiens, NB5;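 note: growth inhibition of NB5 cells, read out as cell viability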
Description: SANGER: Inhibition of human NB5 cell growth in a cell viability assay.

HDLM-2 = format: functional, cell-based, Homo sapiens; settings: Homo sapiens, HDLM-2;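 note: cell viability assay measuring suppression of HDLM-2 proliferation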
Description: SANGER: Inhibition of human HDLM-2 cell growth in a cell viability assay.

EW-16 = format: functional, cell-based, Homo sapiens; settings: Homo sapiens, EW-16;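 note: growth inhibition of human EW-16 cells, read out as cell viability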
Description: SANGER: Inhibition of human EW-16 cell growth in a cell viability assay.

A388 = format: functional, cell-based; settings: Homo sapiens;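 note: growth inhibition of human A388 cells, read out with a cell viability assay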
Description: SANGER: Inhibition of human A388 cell growth in a cell viability assay.

IST-SL1 = format: functional, cell-based, Homo sapiens; settings: Homo sapiens, IST-SL1;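 note: growth inhibition of human IST-SL1 cells, read out with a cell viability assay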
Description: SANGER: Inhibition of human IST-SL1 cell growth in a cell viability assay.

NCI-H226 = format: functional, cell-based, Homo sapiens; settings: Homo sapiens, NCI-H226;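 note: cell viability read-out used to gauge growth inhibition of the cells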
Description: SANGER: Inhibition of human NCI-H226 cell growth in a cell viability assay.

MPP-89 = format: functional, cell-based, Homo sapiens; settings: Homo sapiens, MPP-89;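 note: growth inhibition of human MPP-89 cells, read out with a cell viability assay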
Description: SANGER: Inhibition of human MPP-89 cell growth in a cell viability assay.

EW-11 = format: functional, cell-based, Homo sapiens; settings: Homo sapiens, EW-11;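 note: growth inhibition of human EW-11 cells, measured with a cell viability assay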
Description: SANGER: Inhibition of human EW-11 cell growth in a cell viability assay.

LC-2-ad = format: functional, cell-based, Homo sapiens; settings: Homo sapiens, LC-2-ad;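 note: growth inhibition of human LC-2-ad cells, read out with a cell viability assay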
Description: SANGER: Inhibition of human LC-2-ad cell growth in a cell viability assay.

NCI-H69 = format: functional, cell-based, Homo sapiens; settings: Homo sapiens, NCI-H69;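 note: growth inhibition of the cell line, read out with a cell viability assay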
Description: SANGER: Inhibition of human NCI-H69 cell growth in a cell viability assay.

HEL = format: functional, cell-based, Homo sapiens; settings: Homo sapiens, HEL;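 note: growth inhibition of HEL cells, read out with a cell viability assay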
Description: SANGER: Inhibition of human HEL cell growth in a cell viability assay.

ACN = format: functional, cell-based, Homo sapiens; settings: Homo sapiens, ACN;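 note: growth inhibition of the human ACN cell line, read out via cell viability testing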
Description: SANGER: Inhibition of human ACN cell growth in a cell viability assay.

NCI-H1581 = format: functional, cell-based, Homo sapiens; settings: Homo sapiens, NCI-H1581;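 note: cell growth inhibition read out by a viability assay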
Description: SANGER: Inhibition of human NCI-H1581 cell growth in a cell viability assay.

BV-173 = format: functional, cell-based, Homo sapiens; settings: Homo sapiens, BV-173
Description: SANGER: Inhibition of human BV-173 cell growth in a cell viability assay.

NCI-H1395 = format: functional, cell-based, Homo sapiens; settings: Homo sapiens, NCI-H1395;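 note: cell viability assay read-out quantifying reduced proliferation of human NCI-H1395 cells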
Description: SANGER: Inhibition of human NCI-H1395 cell growth in a cell viability assay.

MSTO-211H = format: functional, cell-based, Homo sapiens; settings: Homo sapiens, MSTO-211H
Description: SANGER: Inhibition of human MSTO-211H cell growth in a cell viability assay.

OCUB-M = format: functional, cell-based; settings: Homo sapiens;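 note: growth inhibition of the cancer cell line, read out through a cell viability assay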
Description: SANGER: Inhibition of human OCUB-M cell growth in a cell viability assay.

QIMR-WIL = format: functional, cell-based, Homo sapiens; settings: Homo sapiens, QIMR-WIL;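 note: growth inhibition of QIMR-WIL cells, read out with a cell viability assay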
Description: SANGER: Inhibition of human QIMR-WIL cell growth in a cell viability assay.

ES7 = format: functional, cell-based, Homo sapiens; settings: Homo sapiens, ES7;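 note: growth inhibition of cultured human ES7 cells, read out as cell viability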
Description: SANGER: Inhibition of human ES7 cell growth in a cell viability assay.

EM-2 = format: functional, cell-based, Homo sapiens; settings: Homo sapiens, EM-2;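 note: growth inhibition of EM-2 cells, read out with a cell viability assay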
Description: SANGER: Inhibition of human EM-2 cell growth in a cell viability assay.

TE-9 = format: functional, cell-based, Homo sapiens; settings: Homo sapiens, TE-9;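 note: cell growth inhibition, measured with a cell viability readout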
Description: SANGER: Inhibition of human TE-9 cell growth in a cell viability assay.

KY821 = format: functional, cell-based, Homo sapiens; settings: Homo sapiens, KY821;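 note: growth inhibition of human KY821 cells, read out by a cell viability assay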
Description: SANGER: Inhibition of human KY821 cell growth in a cell viability assay.

DU-4475 = format: functional, cell-based, Homo sapiens; settings: Homo sapiens, DU-4475
Description: SANGER: Inhibition of human DU-4475 cell growth in a cell viability assay.

LS-513 = format: functional, cell-based, Homo sapiens; settings: Homo sapiens, LS-513
Description: SANGER: Inhibition of human LS-513 cell growth in a cell viability assay.

D-247MG = format: functional, cell-based; settings: Homo sapiens
Description: SANGER: Inhibition of human D-247MG cell growth in a cell viability assay.

LAN-6 = format: functional, cell-based, Homo sapiens; settings: Homo sapiens, LAN-6;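 note: growth inhibition of LAN-6 cells, determined with a cell viability assay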
Description: SANGER: Inhibition of human LAN-6 cell growth in a cell viability assay.

IST-MEL1 = format: functional, cell-based, Homo sapiens; settings: Homo sapiens, IST-MEL1;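 note: growth inhibition of the cell line, read out with a cell viability assay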
Description: SANGER: Inhibition of human IST-MEL1 cell growth in a cell viability assay.

D-502MG = format: functional, cell-based, Homo sapiens; settings: Homo sapiens, D-502MG
Description: SANGER: Inhibition of human D-502MG cell growth in a cell viability assay.

no-10 = format: functional, cell-based, Homo sapiens; settings: Homo sapiens;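 note: growth inhibition of no-10 cells, read out with a cell viability assay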
Description: SANGER: Inhibition of human no-10 cell growth in a cell viability assay.

MMAC-SF = format: functional, cell-based; settings: Homo sapiens;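 note: growth inhibition of human MMAC-SF cells, read out with a cell viability assay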
Description: SANGER: Inhibition of human MMAC-SF cell growth in a cell viability assay.

NCI-H1092 = format: functional, cell-based, Homo sapiens; settings: Homo sapiens, NCI-H1092;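 note: cell growth inhibition measured with a cell viability assay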
Description: SANGER: Inhibition of human NCI-H1092 cell growth in a cell viability assay.

TE-5 = format: functional, cell-based, Homo sapiens; settings: Homo sapiens, TE-5;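 note: inhibition of cell growth, read out by a cell viability assay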
Description: SANGER: Inhibition of human TE-5 cell growth in a cell viability assay.

NCI-H1838 = format: functional, cell-based, Homo sapiens; settings: Homo sapiens, NCI-H1838;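 note: growth inhibition of NCI-H1838 cells, determined with a cell viability readout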
Description: SANGER: Inhibition of human NCI-H1838 cell growth in a cell viability assay.

KGN = format: functional, cell-based, Homo sapiens; settings: Homo sapiens, KGN;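 note: growth inhibition of KGN cells, read out with a cell viability assay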
Description: SANGER: Inhibition of human KGN cell growth in a cell viability assay.

HT = format: functional, cell-based, Homo sapiens; settings: Homo sapiens, HT
Description: SANGER: Inhibition of human HT cell growth in a cell viability assay.

- IC50 (OCI-AML2): > 512 nM
- IC50 (SK-UT-1): 330 nM
- IC50 (DOHH-2): > 512 nM
- IC50 (BB30-HNC): 324 nM
- IC50 (TE-8): > 512 nM
- IC50 (no-11): > 512 nM
- IC50 (SW872): > 512 nM
- IC50 (EW-18): 322 nM
- IC50 (NCI-H1770): > 512 nM
SMILES: CO[C@@H]1[C@H](N(C)C(=O)c2ccccc2)C[C@H]2O[C@]1(C)n1c3ccccc3c3c4c(c5c6ccccc6n2c5c31)C(=O)NC4 [MIDOSTAURIN]

SMILES: CC(C)C[C@H](NC(=O)[C@H](Cc1ccccc1)NC(=O)c1cnccn1)B(O)O [BORTEZOMIB]
- IC50 (KINGS-1): 0.722 nM
- IC50 (NB5): 2.27 nM
- IC50 (HDLM-2): > 20 nM
- IC50 (EW-16): 2.75 nM
- IC50 (OCI-AML2): > 20 nM
- IC50 (A388): 0.356 nM
- IC50 (IST-SL1): 4.68 nM
- IC50 (NCI-H226): > 20 nM
- IC50 (MPP-89): 1.89 nM
- IC50 (EW-11): > 20 nM
- IC50 (SK-UT-1): 0.163 nM
- IC50 (DOHH-2): > 20 nM
- IC50 (LC-2-ad): 1.08 nM
- IC50 (NCI-H69): 1.54 nM
- IC50 (HEL): 1.61 nM
- IC50 (ACN): 0.417 nM
- IC50 (NCI-H1581): 12.3 nM
- IC50 (BB30-HNC): 0.335 nM
- IC50 (BV-173): > 20 nM
- IC50 (NCI-H1395): > 20 nM
- IC50 (TE-8): 1.19 nM
- IC50 (MSTO-211H): > 20 nM
- IC50 (OCUB-M): 0.447 nM
- IC50 (no-11): 3.55 nM
- IC50 (QIMR-WIL): 0.889 nM
- IC50 (ES7): 0.766 nM
- IC50 (EM-2): 1.16 nM
- IC50 (TE-9): 0.182 nM
- IC50 (SW872): 0.996 nM
- IC50 (KY821): > 20 nM
- IC50 (DU-4475): 1.36 nM
- IC50 (LS-513): 0.739 nM
- IC50 (D-247MG): 0.413 nM
- IC50 (EW-18): 18 nM
- IC50 (NCI-H1770): > 20 nM
- IC50 (LAN-6): 2.05 nM
- IC50 (IST-MEL1): 0.917 nM
- IC50 (D-502MG): 6.37 nM
- IC50 (no-10): 0.21 nM
- IC50 (MMAC-SF): 0.216 nM
- IC50 (NCI-H1092): 1.8 nM
- IC50 (TE-5): 0.865 nM
- IC50 (NCI-H1838): > 20 nM
- IC50 (KGN): 2.15 nM
- IC50 (HT): 3.02 nM
